US9259432B1, “Composition and methods for targeted delivery of a therapeutic compound to the brain or spinal cord of a subject for treatment of neurodegenerative diseases” (Parminder J. S. Vig, priority 2011, dated 2016)

Test system: SHSY5Y cells
Experiment: 488-S100B uptake in SHSY5Y cells
Format: cell-based
Conditions: then 1 μM 488-S100B 3 hrs
Experimental: FIG. 14: (a) WT SHSY5Y cells were placed on chamber slides and pretreated with 50 μM Synb1-ELP-TRTK or Synb1-ELP-GGC for 1 hr at 37° C. Next, cells were washed then treated with 1 μM 488-S100B for 3 hrs followed by washing, fixation and DAPI staining. Shown is DAPI nuclear stain in blue and 488-S100B in green. Scale bar: 10 μm. (b) SHSY5Y cells were placed on 6-well plates and pretreated with 50 μM Synb1-ELP-TRTK12 or Synb1-ELP-GGC for 1 hr at 37° C. then treated with 1 μM 488-S100B for 3 hrs, then cells were removed and 488-S100B uptake was measured using flow cytometry. Data is shown as MEAN±STDEV of the % Uptake relative to the control. Statistics were taken using student's t-test. *P<0.05.
SHSY5Y cells (Invitrogen, Carlsbad, Calif., USA) were maintained in DMEM/F12 media (Fisher, Houston, Tex., USA) supplemented with 15% FBS, penicillin-streptomycin (Sigma), and grown in an incubator at 37° C. in the presence of 5% CO2. […] Next, cells were washed then treated with 1 μM 488-S100B for 3 hrs and S100B uptake was analyzed by Epi-fluorescence or by Beckman Cytometric FC 500 flow cytometer as previously described (Bidwell et al., 2009). For flow cytometry experiments, 488-S100B uptake was measured by quenching extracellular fluorescence by coating the cells with Trypan Blue (Fisher) as described previously (Bidwell et al., 2009). […]

Substance: Synb1-ELP-TRTK: thermally responsive S100B inhibitory polypeptide: Synb1 cell penetrating peptide, elastin-like polypeptide (ELP) and TRTK12 peptide fused
- 488-S100B uptake, epi-fluorescence (50 μM pretreatment 1 hr at 37° C.): reduced 488-S100B cellular uptake
- 488-S100B uptake, flow cytometry (50 μM pretreatment 1 hr, vs Control and Synb1-ELP-GGC pretreated cells): significantly reduced 488-S100B uptake
